From patent US9302999B2, “Substituted triazoles as herbicides” (E. I. DU PONT DE NEMOURS AND COMPANY, priority 2012, dated 2016)

Key:
Assay type in all cases: in vivo
[1] = test system: barnyardgrass (Echinochloa crus-galli); assay: Test A pre-/postemergence: barnyardgrass
Summary of the method: (§1)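 Rating scale 0–100 (100 = complete control), visual, ~10 days after application in the greenhouse. Applications: preemergence directed soil spray; postemergence at 1–2 leaves.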

[2] = test system: foxtail, giant (giant foxtail, Setaria faberii); assay: Test A pre-/postemergence: foxtail, giant
Summary of the method: as §1

[3] = test system: morningglory (Ipomoea spp.); assay: Test A pre-/postemergence: morningglory
Summary of the method: as §1

[4] = test system: pigweed (Amaranthus retroflexus); assay: Test A pre-/postemergence: pigweed
Summary of the method: as §1

[5] = test system: wheat (Triticum aestivum); assay: Test A pre-/postemergence: wheat
Summary of the method: as §1

[6] = test system: winter wheat (Triticum aestivum); assay: Test C pre-/postemergence: winter wheat
Summary of the method: (§2)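 Preemergence on seeds in loam/sand, postemergence on 2–18 cm (1–4-leaf) plants in peat-based medium; compounds in non-phytotoxic solvent with surfactant. After 13–15 days in greenhouse, visual rating versus controls, 0 (no effect) to 100 (complete control).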

[7] = test system: corn (Zea mays); assay: Test C pre-/postemergence: corn
Summary of the method: as §2

[8] = test system: johnsongrass (Sorghum halepense); assay: Test C pre-/postemergence: johnsongrass
Summary of the method: as §2

[9] = test system: morningglory (Ipomoea coccinea); assay: Test C pre-/postemergence: morningglory
Summary of the method: as §2

[10] = test system: nutsedge, yellow (yellow nutsedge, Cyperus esculentus); assay: Test C pre-/postemergence: nutsedge, yellow
Summary of the method: as §2

[11] = test system: velvetleaf (Abutilon theophrasti); assay: Test C pre-/postemergence: velvetleaf
Summary of the method: as §2

[12] = test system: chickweed (common chickweed, Stellaria media); assay: Test C postemergence: chickweed
Summary of the method: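 Crop and weed plants were grown in peat-vermiculite medium and treated postemergence at the 1- to 4-leaf stage (2-18 cm tall). After 13-15 days in a greenhouse, each species was rated visually against untreated controls on a 0-100 scale (0 no effect, 100 complete control).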

[13] = Postemergence, 125 g ai/ha, 0 to 100 scale, 0 is no effect, 100 is complete control
[14] = Postemergence, 500 g ai/ha, 0 to 100 scale, 0 is no effect, 100 is complete control
[15] = Preemergence, 125 g ai/ha, 0 to 100 scale where 0 is no effect and 100 is complete control
[16] = Preemergence, 500 g ai/ha, 0 to 100 scale (0 no effect, 100 complete control)
[17] = Postemergence, 31 g ai/ha, scale 0 to 100 (0 no effect, 100 complete control)
[18] = Postemergence, 62 g ai/ha, scale 0 to 100 (0 no effect, 100 complete control)
[19] = Postemergence, 125 g ai/ha, scale 0 to 100, 0 no effect, 100 complete control
[20] = Postemergence, 250 g ai/ha, scale 0 to 100
[21] = Preemergence, 31 g ai/ha, scale 0 (no effect) to 100 (complete control)
[22] = Preemergence, 62 g ai/ha, scale of 0 to 100, 0 is no effect, 100 is complete control
[23] = Preemergence, 125 g ai/ha, scale 0 to 100, 0 no effect, 100 complete control
[24] = Preemergence, 250 g ai/ha, scale 0 to 100, 0 no effect, 100 complete control
[25] = 31 g ai/ha, scale 0 to 100 (0 no effect, 100 complete control)
[26] = 62 g ai/ha, scale 0 to 100 (0 no effect, 100 complete control)
[27] = 125 g ai/ha, scale 0 to 100, 0 no effect, 100 complete control
[28] = Postemergence, 250 g ai/ha, scale 0 to 100 (0 no effect, 100 complete control)

CCc1nn(-c2ccc(F)cc2)nc1Oc1ccnc(C(F)(F)F)c1 [Compound 166]
30: Plant response rating, Wheat [5, 13] | Plant response rating, Johnsongrass [8, 22] | Plant response rating, Morningglory [9, 17] | Plant response rating, Morningglory [9, 18] | Plant response rating, Velvetleaf [11, 20]
45: Plant response rating, Morningglory [9, 24]
60: Plant response rating, Velvetleaf [11, 24]
25: Plant response rating, Morningglory [9, 23]
5: Plant response rating, Wheat [6, 17] | Plant response rating, Wheat [6, 18] | Plant response rating, Wheat [6, 19] | Plant response rating, Wheat [6, 23] | Plant response rating, Corn [7, 23] | Plant response rating, Nutsedge, Yellow [10, 18] | Plant response rating, Nutsedge, Yellow [10, 19] | Plant response rating, Nutsedge, Yellow [10, 23]
10: Plant response rating, Wheat [5, 15] | Plant response rating, Wheat [6, 20] | Plant response rating, Johnsongrass [8, 17] | Plant response rating, Johnsongrass [8, 21] | Plant response rating, Morningglory [9, 22] | Plant response rating, Nutsedge, Yellow [10, 20] | Plant response rating, Velvetleaf [11, 17]
0: Plant response rating, Wheat [6, 21] | Plant response rating, Wheat [6, 22] | Plant response rating, Corn [7, 21] | Plant response rating, Nutsedge, Yellow [10, 17] | Plant response rating, Nutsedge, Yellow [10, 21] | Plant response rating, Nutsedge, Yellow [10, 22] | Plant response rating, Velvetleaf [11, 21] | Plant response rating, Velvetleaf [11, 22]
20: Plant response rating, Corn [7, 24] | Plant response rating, Johnsongrass [8, 19] | Plant response rating, Johnsongrass [8, 20] | Plant response rating, Velvetleaf [11, 18] | Plant response rating, Velvetleaf [11, 19]
40: Wheat plant response rating [5, 14]
15: Plant response rating, Wheat [6, 24] | Plant response rating, Corn [7, 17] | Plant response rating, Corn [7, 18] | Plant response rating, Corn [7, 19] | Plant response rating, Corn [7, 20] | Plant response rating, Johnsongrass [8, 18] | Plant response rating, Nutsedge, Yellow [10, 24] | Plant response rating, Velvetleaf [11, 23]
70: Plant response rating, Barnyardgrass [1, 13]
50: Plant response rating, Wheat [5, 16]
90: Barnyardgrass plant response rating [1, 14] | Plant response rating, Barnyardgrass [1, 15] | Plant response rating, Foxtail, Giant [2, 13] | Foxtail, Giant plant response rating [2, 14] | Plant response rating, Morningglory [3, 13] | Plant response rating, Chickweed [12, 26] | Plant response rating, Chickweed [12, 27] | Plant response rating, Chickweed ([12]; 250 g ai/ha, scale 0 to 100)
75: Plant response rating, Johnsongrass [8, 23]
35: Plant response rating, Morningglory [9, 19]
65: Plant response rating, Morningglory [9, 20]
100: Plant response rating, Barnyardgrass [1, 16] | Plant response rating, Foxtail, Giant [2, 15] | Plant response rating, Foxtail, Giant [2, 16] | Morningglory plant response rating [3, 14] | Plant response rating, Pigweed [4, 13] | Pigweed plant response rating [4, 14] | Plant response rating, Pigweed [4, 15] | Plant response rating, Pigweed [4, 16] | Plant response rating, Johnsongrass [8, 24]
55: Plant response rating, Chickweed [12, 25]

CCCc1nn(-c2ccc(C(F)(F)F)c(F)c2)nc1Oc1ccnc(C(F)(F)F)c1 [Compound 185]
30: Plant response rating, Wheat [5, 15] | Plant response rating, Johnsongrass [8, 18]
5: Plant response rating, Wheat [6, 17] | Plant response rating, Corn [7, 21] | Plant response rating, Corn [7, 22] | Plant response rating, Nutsedge, Yellow [10, 24]
55: Plant response rating, Wheat [6, 24] | Plant response rating, Morningglory [9, 22] | Plant response rating, Velvetleaf [11, 17]
85: Plant response rating, Velvetleaf [11, 19] | Plant response rating, Chickweed [12, 26]
45: Plant response rating, Morningglory [9, 21]
95: Plant response rating, Chickweed [12, 27] | Plant response rating, Chickweed ([12]; 250 g ai/ha, scale 0 to 100)
80: Plant response rating, Johnsongrass [8, 23] | Plant response rating, Velvetleaf [11, 18] | Plant response rating, Velvetleaf [11, 22]
20: Plant response rating, Wheat [5, 13] | Plant response rating, Wheat [6, 28] | Plant response rating, Corn [7, 18]
70: Plant response rating, Barnyardgrass [1, 13] | Plant response rating, Johnsongrass [8, 22] | Plant response rating, Morningglory [9, 23] | Plant response rating, Chickweed [12, 25]
50: Plant response rating, Wheat [5, 16]
65: Plant response rating, Johnsongrass [8, 19]
0: Plant response rating, Nutsedge, Yellow [10, 21] | Plant response rating, Nutsedge, Yellow [10, 22] | Plant response rating, Nutsedge, Yellow [10, 23]
98: Plant response rating, Morningglory [9, 18]
15: Plant response rating, Wheat [6, 18] | Plant response rating, Wheat [6, 19] | Plant response rating, Corn [7, 17] | Plant response rating, Nutsedge, Yellow [10, 28]
40: Wheat plant response rating [5, 14] | Plant response rating, Wheat [6, 22] | Plant response rating, Wheat [6, 23]
35: Plant response rating, Corn [7, 23] | Plant response rating, Corn [7, 24]
60: Plant response rating, Morningglory [3, 15] | Plant response rating, Velvetleaf [11, 21]
75: Plant response rating, Johnsongrass [8, 28]
100: Plant response rating, Barnyardgrass [1, 15] | Plant response rating, Barnyardgrass [1, 16] | Plant response rating, Foxtail, Giant [2, 15] | Plant response rating, Foxtail, Giant [2, 16] | Plant response rating, Morningglory [3, 13] | Morningglory plant response rating [3, 14] | Plant response rating, Morningglory [3, 16] | Plant response rating, Pigweed [4, 13] | Pigweed plant response rating [4, 14] | Plant response rating, Pigweed [4, 15] | Plant response rating, Pigweed [4, 16] | Plant response rating, Johnsongrass [8, 24] | Plant response rating, Morningglory [9, 19] | Plant response rating, Morningglory [9, 28] | Plant response rating, Morningglory [9, 24] | Plant response rating, Velvetleaf [11, 23] | Plant response rating, Velvetleaf [11, 24]
90: Barnyardgrass plant response rating [1, 14] | Plant response rating, Foxtail, Giant [2, 13] | Foxtail, Giant plant response rating [2, 14] | Plant response rating, Morningglory [9, 17] | Plant response rating, Velvetleaf [11, 28]
10: Plant response rating, Wheat [6, 21] | Plant response rating, Johnsongrass [8, 17] | Plant response rating, Nutsedge, Yellow [10, 17] | Plant response rating, Nutsedge, Yellow [10, 18] | Plant response rating, Nutsedge, Yellow [10, 19]
25: Plant response rating, Corn [7, 19] | Plant response rating, Corn [7, 20] | Plant response rating, Johnsongrass [8, 21]
